In patent publication US20230365488A1, “TRUXILLIC ACID MONOESTER-DERIVATIVES AS SELECTIVE FABP5 INHIBITORS AND PHARMACEUTICAL COMPOSITIONS AND USES THEREOF” (The Research Foundation for The State University of New York, priority 2020, published 2023):

What was measured:
FABP5 = FABP5 (Homo sapiens (Human), UniProt Q01469); test: FABP5 fluorescent probe displacement binding assay; conditions: for Ki: average ± S.E. of at least three independent experiments; for FABP3 Ki/FABP5 Ki: selectivity ratio FABP3 over FABP5
[1] = tested on: PC-3 (human metastatic prostate cancer) cells; test: Cytotoxicity (MTT) assay, PC-3 (Example 5); format: cell-based; conditions: 72-hour incubation, 1% FBS, read-out: PC3 IC50
FABP3 = FABP3 (Homo sapiens (Human), UniProt P05413); test: FABP3 fluorescent probe displacement binding assay; conditions: average ± S.E. of at least three independent experiments
[2] = tested on: WI-38 (human normal lung fibroblast) cells; test: Cytotoxicity (MTT) assay, WI-38 (Example 5); format: cell-based; conditions: 72-hour incubation, 1% FBS
[3] = tested on: HepG2 (human liver cancer) cells; test: Cytotoxicity (MTT) assay, HepG2 (Example 5); format: cell-based; conditions: 72-hour incubation, 1% FBS
FABP7 = FABP7 (Homo sapiens (Human), UniProt O15540); test: FABP7 fluorescent probe displacement binding assay; conditions: average ± S.E. of at least three independent experiments
FABP7, sequence (O15540 whole entry): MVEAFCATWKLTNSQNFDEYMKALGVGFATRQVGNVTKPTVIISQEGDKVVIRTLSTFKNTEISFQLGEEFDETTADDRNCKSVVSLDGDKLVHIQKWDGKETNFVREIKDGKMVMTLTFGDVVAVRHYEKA

FABP5, sequence (Q01469 whole entry): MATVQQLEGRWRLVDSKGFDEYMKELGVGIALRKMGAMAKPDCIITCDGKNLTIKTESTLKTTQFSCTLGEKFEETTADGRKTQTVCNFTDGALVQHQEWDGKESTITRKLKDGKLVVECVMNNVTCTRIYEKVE
FABP3, sequence (P05413 whole entry): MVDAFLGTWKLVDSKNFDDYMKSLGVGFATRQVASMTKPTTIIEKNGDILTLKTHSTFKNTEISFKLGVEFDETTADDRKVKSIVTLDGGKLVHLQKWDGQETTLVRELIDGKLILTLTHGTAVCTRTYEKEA

| Compound | Ki (FABP5) | FABP3 Ki/FABP5 Ki (FABP5) | Ki (FABP3) | Ki (FABP7) | IC50 [1] | IC50 [2] | IC50 [3] |
| --- | --- | --- | --- | --- | --- | --- | --- |
| O=C1CCc2cc(-c3cccc(OC(=O)[C@@H]4C(c5ccccc5)[C@@H](C(=O)O)[C@H]4c4ccccc4)c3)ccc2N1 (mixture of isomers) [Compound 1h, (±)-α-2,4-diphenyl-3-[3-(2-oxo-1,2,3,4-tetrahydroquinolin-6-yl)phenoxycarbonyl]cyclobutane-1-carboxylic acid] | 0.74 ± 0.06 µM | 10.9 | 8.11 ± 1.67 µM | 0.7 ± 0.03 µM | 4.93 µM | 24 µM | 7.89 µM |
| COc1ccccc1[C@H]1[C@H](C(=O)O)[C@H](c2ccccc2OC)[C@H]1C(=O)OCc1cccc2ccccc12 (racemic) [Compound 1q, (±)-α-2,4-bis(2-methoxyphenyl)-3-(naphthalen-1-ylmethoxycarbonyl)cyclobutane-1-carboxylic acid] | 2.15 ± 0.17 µM | 24.5 | 52.6 ± 8.62 µM | 8.04 ± 0.71 µM | 11.3 µM | 20.3 µM | 12.4 µM |
| O=C(O)[C@@H]1C(c2ccccc2)[C@H](C(=O)OCc2ccccc2-c2ccccc2)[C@H]1c1ccccc1 (mixture of isomers) [Compound 3c, (±) -ε-3-(1,1′-biphenyl-2-ylmethoxycarbonyl)-2,4-diphenylcyclobutane-1-carboxylic acid] | 1.65 ± 0.22 µM | 2.1 | 3.4 ± 0.54 µM | 0.68 ± 0.16 µM | 15 µM | 22.2 µM | 13.8 µM |
| O=C(O)[C@@H]1[C@@H](c2ccccc2)[C@H](C(=O)OCc2cccc3ccccc23)[C@H]1c1ccccc1 [Compound 3f, ε-2,4-diphenyl-3-(napthylen1-yl)methoxycarbonylcyclobutane-1-carboxylic acid] | 5.08 ± 0.62 µM | 1.5 | 7.42 ± 1.38 µM | 0.86 ± 0.04 µM | 0.95 µM | 1.6 µM | 1.26 µM |

The next lines start with results.

| Ki (FABP5) | FABP3 Ki/FABP5 Ki (FABP5) | Ki (FABP3) | Ki (FABP7) | Compound | IC50 [1] | IC50 [2] | IC50 [3] |
| --- | --- | --- | --- | --- | --- | --- | --- |
| 1.56 ± 0.19 µM | 1.8 | 2.79 ± 0.85 µM | 2.25 ± 0.13 µM | COc1ccccc1C1[C@@H](C(=O)O)[C@@H](c2ccccc2OC)[C@@H]1C(=O)Oc1cccc(-c2ccc3c(c2)OCCO3)c1 (mixture of isomers) [Compound 1m] | 7.25 µM | 49.5 µM | 11.2 µM |
| 1.59 ± 0.11 µM | 0.8 | 1.28 ± 0.28 µM | 0.26 ± 0.09 µM | COc1ccccc1[C@@H]1C(C(=O)O)[C@@H](c2ccccc2OC)C1C(=O)Oc1ccccc1-c1ccc2c(c1)OCO2 (mixture of isomers) [Compound 1n, (±)-α-3-[2-(bnzo[d][1,3]dioxol-5-yl)phenoxycarbonyl]-2,4-di (2-methoxyphenyl)cyclobutane-1-carboxylic acid] | 20.7 µM | 59.4 µM | 23.5 µM |
| 1.59 ± 0.24 µM | 0.13 | 0.21 ± 0.09 µM | 1.36 ± 0.23 µM | COc1ccccc1[C@H]1[C@H](C(=O)O)[C@H](c2ccccc2OC)[C@H]1C(=O)Oc1ccccc1-c1ccccc1 (racemic) [Compound 1o, (±)-α-3-(1,1′-biphenyl-2-yloxycarbonyl)-2,4-di (2-methoxyphenyl)cyclobutane-1-carboxylic acid] | 8.69 µM | > 100 µM | 9.43 µM |
| 1.26 ± 0.12 µM | 5.4 | 6.86 ± 0.07 µM | 1.78 ± 0.45 µM | COc1ccccc1[C@H]1[C@H](C(=O)O)[C@H](c2ccccc2OC)[C@@H]1C(=O)Oc1cccc(-c2cccc3c2OCCO3)c1 (racemic) [Compound 2c, (±)-γ-3-((3-(2,3-dihydrobenzo[b][1, 4]dioxin-5-yl)phenoxy)carbonyl)-2,4-di(2-methoxyphenyl)cyclobutane-1-carboxylic acid] | 10.1 µM | 52.1 µM | 16.4 µM |
